Measured values as given in patent US7553858B2, “Combination of flupirtine and tramadol” (priority 2003, dated 2009).
Read-outs that look alike come from different tables or passages of the source. Marks after values point to notes of the source that are not given here.

Columns and labels:
[1] = test system: acetylcholine-induced writhing; assay: Acetylcholine-induced writhing in mice; assay type: in vivo; details: Mus musculus
Experimental: Male mice weighing 22-24 g were maintained in groups of 4 at standard conditions (temperature 22±1° C., humidity: 40-50%, dark-light rhythm: 12/12 h) with food and water freely available.
Abdominal contractions (writhings) were induced by intraperitoneal (i.p.) injection of acetylcholine (ACh) (chloride, 5.5. mg/kg) in a volume of 10 ml/kg. Immediately thereafter, mice were placed in a plastic cage and the number of abdominal contractions (writhes) was counted for 10 min. The total number of abdominal contractions per animal and number of animals with contractions were calculated.
Drugs were prepared daily. All compounds were given orally. Tramadol hydrochloride and flupirtine maleate were administered 30 min before acetylcholine injection.
ED50 values were estimated either by the ratio of animals protected from writhings to the number of animals in groups or by the mean number of writhes in each group of animals. The values were calculated by using linear regression. The statistical analysis of differences between calculated and measured effects was carried out by the Kruscall-Wallis test. Asterisks (*) indicate the significance level p<0.05.

skeletal muscle tone = assay: Skeletal muscle tone in conscious rats; assay type: in vivo, Sprague-Dawley rats
Experimental: The experimental set-up has been described in all details in a former publication (Nickel et al. Arzn. Forsch./Drug Res. 1997; 47; 1081-6). Briefly, the measurement of skeletal muscle tone was done by recording successively the resistance of flexor and extensor muscles which counteracted the forced straightening and bending of the foot in the ankle joint. Pressure changes induced by the movements of the foot were continuously registered. Signals were analyzed on a personal computer. A corresponding computer program calculated the resistance values of flexors and extensors of the foot over 10 min recording periods.
Male Sprague-Dawley rats weighing 200-220 g were used.
Drugs (tramadol hydrochloride, flupirtine maleate) were prepared in physiological saline daily and given intraperitoneally.
The statistical analysis of differences between calculated and measured effects was carried out by the one-way ANOVA. Asterisks (*) indicate the significance level p<0.01.

[2] = test system: seizures induced by subconvulsive pentetrazol doses; assay: Submaximal pentetrazol-induced seizures in mice; details: for Intensity (scored) of seizures / Number of animals with seizures: n = 10
Experimental: Male mice weighing 22-24 g were used. Animals housed in groups of 4 at standard conditions (temperature 22° C., humidity 40-60%) with food and water freely available. Lights were on from 06.00 a.m. to 06.00 p.m. The experiments were approved by the Animal Health Committee of the University which is responsible for the care and proper use of experimental animals.
Seizures were induced by intraperitoneal administration of pentetrazol at the subconvulsive dose of 30 mg/kg. The latency of the first seizure reaction, the seizure intensity and the number of animals with seizures were calculated for the first 10 min after i.p. injection of pentetrazol. Tramadol (hydrochloride) and flupirtine (maleate) were given intraperitoneally (15 min before pentetrazol administration). Drugs were prepared daily in 0.9% saline.

tramadol-induced emesis = assay: Emetic response in conscious mongrel dogs; assay type: in vivo; details: Tramadol 14 mg/kg i.v., first 60 min, n = 5
Experimental: Mongrel dogs of both sexes weighing up to 15 kg were used. They were deprived of food overnight but allowed water ad libitum. Test compounds were administered to conscious animals by a slow infusion via the saphenous vein. Emetic responses (retches, strong salivation vomits with output) were monitored 60 min following drug administration (Borison and Wang, 1953). All dogs received 14 mg/kg tramadol i.v. repeatedly with an interval of one week. Positive responder dogs were selected and used in further experiments.

[3] = Flupirtine 10 mg/kg i.p., pentetrazol 30 mg/kg i.p.
[4] = Flupirtine 20 mg/kg i.p., pentetrazol 30 mg/kg i.p.
[5] = Tramadol 20 mg/kg i.p., 15 min before pentetrazol 30 mg/kg i.p.
[6] = Tramadol 40 mg/kg i.p., pentetrazol 30 mg/kg i.p.

## CCOC(=O)Nc1ccc(NCc2ccc(F)cc2)nc1N [Flupirtine]
[1]; mice, oral, 30 min before ACh 5.5 mg/kg i.p., read-out: oral ED50-values calculated on the basis of animals protected from writhings
  ED50: 27.2 mg/kg
[1]; mice, oral, 30 min before ACh 5.5 mg/kg i.p., read-out: oral ED50-values calculated on the basis of reduction of number of writhings
  ED50: 21 mg/kg
Skeletal muscle tone; Flupirtine 5-10 mg/kg i.p.
  tramadol-induced skeletal muscle rigidity (in words): completely abolished
[2]; [3]
  Intensity (scored) of seizures: 0.20
  Number of animals with seizures: 2
[2]; [4]
  Intensity (scored) of seizures: 0.10
  Number of animals with seizures: 1
[2]; mice, i.p., flupirtine with tramadol
  proconvulsive activity of tramadol, in the combination (in words): almost completely attenuated

## COc1cccc([C@@]2(O)CCCC[C@H]2CN(C)C)c1 (racemic) [Tramadol, trans-(+/−)-2-[(Dimethylamino)methyl]-1-(3-methoxyphenyl)cyclohexanol]
[1]; read-out: oral ED50-values calculated on the basis of animals protected from writhings
  ED50: 4.87 mg/kg
[1]; read-out: oral ED50-values calculated on the basis of reduction of number of writhings
  ED50: 4.14 mg/kg
Skeletal muscle tone; Tramadol 20 mg/kg i.p.
  Changes in muscle tonus (in % compared to placebo): +12%
Skeletal muscle tone; Tramadol 40 mg/kg i.p.
  Changes in muscle tonus (in % compared to placebo): +47%*
tramadol-induced emesis
  Emetic response, % of dogs: 100%
[2]; [5]
  Intensity (scored) of seizures: 1.70*
  Number of animals with seizures: 8*
[2]; [6]
  Intensity (scored) of seizures: 3.00*
  Number of animals with seizures: 10*
[2]; mice, i.p.
  effect on acute seizures induced by subconvulsive doses of pentetrazol (in words): proconvulsive effects
